From patent US12384801B2, “Benzothiophene, thienopyridine and thienopyrimidine derivatives for the modulation of sting” (CTXT PTY LTD, priority 2019, dated 2025)

Tests used:
human STING (HAQ) [1] = molecular target: T1, human STING (HAQ) (Homo sapiens (Human), UniProt Q86WV6, G230A/H232R/R293Q); assay: Surface Plasmon Resonance (SPR), STING (HAQ); conditions: read-out: SPR (HAQ) KD; biotinylated STING on streptavidin chip, 8° C.
human STING (WT) = human STING (WT) (Homo sapiens (Human), UniProt Q86WV6, H232R); assay: Differential scanning fluorimetry (DSF), huSTING (WT); assay type: binding; conditions: compound 100 μM, 2 μM protein, Tm with ligand minus Tm of protein alone (1% DMSO)
Experimental: (§1) Data were analyzed using “Meltdown analysis” protocol described by Rosa (2015).

human STING (HAQ) [2] = molecular target: T1, human STING (HAQ); assay: Differential scanning fluorimetry (DSF), huSTING (HAQ); assay type: binding; conditions: compound 100 μM, 2 μM protein, Tm with ligand minus Tm of protein alone (1% DMSO)
Experimental: as §1

WT human STING isoform = WT human STING isoform (Homo sapiens (Human), UniProt Q86WV6, H232R); assay: THP-1-Dual KI-hSTING-R232 reporter cell line assay; assay type: cell-based; conditions: 24 h incubation, luminescence, normalized to ML RR-S2 CDA 40 μM; read-out: EC50 THP-1 Dual KI-hSTING-R232 cells
Experimental: (§2) THP-1 STING Lucia ISG cells (InvivoGen #thpl-isg) were cultured in RPMI-1640 containing 2 mM L-glutamine, 25 mM HEPES, 100 μg/mL Normocin (InvivoGen) and 10% heat-inactivated FBS. Cells were seeded at a density of 7×10^5 cells/mL, maintained at 37° C./5% CO2, and passaged every 3-4 days. Selection pressure was maintained by the addition of 100 μg/mL Zeocin every second passage.
(§3) Assay conditions: cells were harvested and resuspended at a concentration of 5×10^5 cells/mL in fresh growth media. Of this cell preparation 20 μL per well was dispensed into 384 well cell culture plates (Greiner, #781098X) and incubated at 37° C./5% CO2 for 2 hours.
(§4) Concentration Response Curves (commonly 11 doses) were prepared by 2.5 fold serial dilution starting from 10 mM compound stock solution in DMSO. Compound dilutions were transferred into the cell culture plates using a pintool (0.1 μL transfer), control wells were matched for DMSO. Positive control wells received ML RR-S2 CDA (Med Chem Express HY12885B) in 5 μL of media to a final concentration of 40 μM. All other wells received additional 5 μL of media only to equalize volume. The plates were incubated for 24 h at 37° C./5% CO2.
(§5) For the detection step, QUANTI-Luc (InvivoGen #rep-qlc1) was prepared according to manufacturer's instruction and 10 μL were added per well to the culture plates. Plates were shaken for ten seconds on an orbital shaker and left in the dark at room temperature for two minutes, before luminescence was read on a Perkin Elmer Envision plate reader.
(§6) Data analysis: Luminescence raw data was normalized % activity relative to the signal of the positive control wells and negative control wells which were not treated with compound. The following formula was used to calculate normalized % activity from raw signals: % activity=(sample−negative)/(positive−negative)
(§7) The THP-1 STING Lucia ISG cell EC50 provides an assessment of activity at the human HAQ isoform of STING. For assessing compound activity against the WT human STING isoform, an equivalent method was conducted where the cells used were THP-1-Dual KI-hSTING-R232 (InvivoGen #thpd-r232).

[3] = molecular target: human HAQ isoform of STING (Homo sapiens (Human), UniProt Q86WV6, G230A/H232R/R293Q/R71H); assay: THP-1 STING Lucia ISG reporter cell line assay; assay type: cell-based; conditions: 24 h incubation, luminescence, normalized to ML RR-S2 CDA 40 μM; read-out: EC50 THP-I STING Lucia ISG cells
Experimental: as §2, §3, §4, §5, §6, §7

Chain of human HAQ isoform of STING (Q86WV6 whole entry R71H/G230A/H232R/R293Q, canonical isoform): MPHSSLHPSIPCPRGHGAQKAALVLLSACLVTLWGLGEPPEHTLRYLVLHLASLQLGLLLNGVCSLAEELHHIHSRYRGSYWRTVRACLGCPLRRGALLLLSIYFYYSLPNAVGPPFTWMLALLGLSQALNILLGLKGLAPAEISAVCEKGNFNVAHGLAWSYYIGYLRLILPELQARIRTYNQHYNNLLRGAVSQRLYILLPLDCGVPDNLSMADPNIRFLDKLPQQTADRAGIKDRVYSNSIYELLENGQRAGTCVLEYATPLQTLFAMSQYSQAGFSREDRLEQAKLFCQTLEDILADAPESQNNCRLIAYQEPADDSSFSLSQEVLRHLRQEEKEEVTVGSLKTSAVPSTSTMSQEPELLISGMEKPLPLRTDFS
T1 sequence (Q86WV6 149-345 G230A/H232R/R293Q): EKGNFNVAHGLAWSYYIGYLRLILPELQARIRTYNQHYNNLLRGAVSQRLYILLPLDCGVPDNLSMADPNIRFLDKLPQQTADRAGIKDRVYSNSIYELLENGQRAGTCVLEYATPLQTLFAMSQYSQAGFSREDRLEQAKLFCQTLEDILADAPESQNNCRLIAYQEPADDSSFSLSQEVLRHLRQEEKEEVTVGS
Chain of WT human STING isoform (Q86WV6 whole entry H232R, canonical isoform): as the sequence (Q86WV6 whole entry R71H/G230A/H232R/R293Q, canonical isoform) above, with H71R, A230G, Q293R counted along it
Chain of human STING (WT) (Q86WV6 149-345 H232R): as the sequence (Q86WV6 149-345 G230A/H232R/R293Q) above, with A82G, Q145R counted along it

SMILES | Kd (human STING (HAQ) [1]) | ΔTm at 100 µM (human STING (WT)) | ΔTm at 100 µM (human STING (HAQ) [2]) | EC50 (WT human STING isoform) | EC50 [3] | DSF huSTING (WT) ΔTm (human STING (WT)) | DSF huSTING (HAQ) ΔTm (human STING (HAQ) [2])
N#Cc1cccc2sc(C(=O)O)c(-c3nc4cc(C(N)=O)ccc4n3CCn3c(-c4c(C(=O)O)sc5cccc(C#N)c45)nc4cc(C(N)=O)ccc43)c12 [Example 17, 3,3′-(Ethane-1,2-diylbis(5-carbamoyl-1H-benzo[d]imidazole-1,2-diyl))bis(4-cyanobenzo[b]thiophene-2-carboxylic acid)] | 38 µM | -2.58 °C | 3.27 °C | 9.4 µM | 14.9 µM |  | 
CCOC(=O)c1sc2cccc(Br)c2c1-c1nc2cc(C(N)=O)ccc2n1CCn1c(-c2c(C(=O)OCC)sc3cccc(Br)c23)nc2cc(C(N)=O)ccc21 [Example 10, Diethyl 3,3′-(ethane-1,2-diylbis(5-carbamoyl-1H-benzo[d]imidazole-1,2-diyl))bis(4-bromobenzo[b]thiophene-2-carboxylate)] |  |  |  | 12.7 µM | 19.9 µM |  | 
CCOC(=O)c1sc2cccc(C)c2c1-c1nc2cc(C(N)=O)ccc2n1CCn1c(-c2c(C(=O)OCC)sc3cccc(C)c23)nc2cc(C(N)=O)ccc21 [Example 14, Diethyl 3,3′-(1,1′-(ethane-1,2-diyl)bis(5-carbamoyl-1H-benzo[d]imidazole-2,1-diyl))bis(4-methylbenzo[b]thiophene-2-carboxylate)] |  |  |  | > 40 µM | > 40 µM |  | 
CCOC(=O)c1sc2cccc(OCC)c2c1-c1nc2cc(C(N)=O)ccc2n1CCn1c(-c2c(C(=O)OCC)sc3cccc(OCC)c23)nc2cc(C(N)=O)ccc21 [Example 23, Diethyl 3,3′-(ethane-1,2-diylbis(5-carbamoyl-1H-benzo[d]imidazole-1,2-diyl))bis(4-ethoxybenzo[b]thiophene-2-carboxylate)] |  |  |  | > 40 µM | > 40 µM |  | 
CCOC(=O)c1sc2cccc(C(F)(F)F)c2c1-c1nc2cc(C(N)=O)ccc2n1CCn1c(-c2c(C(=O)OCC)sc3cccc(C(F)(F)F)c23)nc2cc(C(N)=O)ccc21 [Example 18, Diethyl 3,3′-(ethane-1,2-diylbis(5-carbamoyl-1H-benzo[d]imidazole-1,2-diyl))bis(4-(trifluoromethyl)benzo[b]thiophene-2-carboxylate)] |  |  |  | > 40 µM | 3.74 µM |  | 
CCOC(=O)c1sc2c(F)ccc(Cl)c2c1-c1nc2cc(C(N)=O)ccc2n1CCn1c(-c2c(C(=O)OCC)sc3c(F)ccc(Cl)c23)nc2cc(C(N)=O)ccc21 [Example A2, Diethyl 3,3′-(ethane-1,2-diylbis(5-carbamoyl-1H-benzo[d]imidazole-1,2-diyl))bis(4-chloro-7-fluorobenzo[b]thiophene-2-carboxylate)] |  |  |  | 3.17 µM | 9.53 µM |  | 
CCOC(=O)c1sc2cccc(Cl)c2c1-c1nc2c(OC)c(C(N)=O)ccc2n1CCn1c(-c2c(C(=O)OCC)sc3cccc(Cl)c23)nc2c(OC)c(C(N)=O)ccc21 [Example 21, Diethyl 3,3′-(ethane-1,2-diylbis(5-carbamoyl-4-methoxy-1H-benzo[d]imidazole-1,2-diyl))bis(4-chlorobenzo[b]thiophene-2-carboxylate)] |  | 3.41 °C | 4.33 °C | 0.007 µM | 0.019 µM |  | 
COc1c(C(N)=O)ccc2c1nc(-c1c(C(=O)O)sc3cccc(Cl)c13)n2CCn1c(-c2c(C(=O)O)sc3cccc(Cl)c23)nc2c(OC)c(C(N)=O)ccc21 (single isomer, unassigned) [Example 22.2, 3,3′-(Ethane-1,2-diylbis(5-carbamoyl-4-methoxy-1H-benzo[d]imidazole-1,2-diyl))bis(4-chlorobenzo[b]thiophene-2-carboxylic acid)] |  |  |  | 0.498 µM | 1.01 µM | 35.685 °C | 45.31 °C
CCOC(=O)c1sc2ccnc(OC)c2c1-c1nc2cc(C(N)=O)ccc2n1CCn1c(-c2c(C(=O)OCC)sc3ccnc(OC)c23)nc2cc(C(N)=O)ccc21 [Example 6, Diethyl 3,3′-(ethane-1,2-diylbis(5-carbamoyl-1H-benzo[d]imidazole-1,2-diyl))bis(4-methoxythieno[3,2-c]pyridine-2-carboxylate)] |  |  |  | > 40 µM | > 40 µM |  | 
NC(=O)c1ccc2c(c1)nc(-c1c(C(=O)O)sc3cccc(C(F)(F)F)c13)n2CCn1c(-c2c(C(=O)O)sc3cccc(C(F)(F)F)c23)nc2cc(C(N)=O)ccc21 (single isomer, unassigned) [Example 19.1, 3,3′-(Ethane-1,2-diylbis(5-carbamoyl-1H-benzo[d]imidazole-1,2-diyl))bis(4-(trifluoromethyl)benzo[b]thiophene-2-carboxylic acid)] |  |  | 21.4 °C | 0.196 µM | 0.189 µM | 9.38 °C | 
CCOC(=O)c1sc2cccc(C#N)c2c1-c1nc2cc(C(N)=O)ccc2n1CCn1c(-c2c(C(=O)OCC)sc3cccc(C#N)c23)nc2cc(C(N)=O)ccc21 [Example 16, Diethyl 3,3′-(ethane-1,2-diylbis(5-carbamoyl-1H-benzo[d]imidazole-1,2-diyl))bis(4-cyanobenzo[b]thiophene-2-carboxylate)] |  |  |  | > 40 µM | > 40 µM |  | 
NC(=O)c1ccc2c(c1)nc(-c1c(C(=O)O)sc3cccc(C(F)(F)F)c13)n2CCn1c(-c2c(C(=O)O)sc3cccc(C(F)(F)F)c23)nc2cc(C(N)=O)ccc21 (single isomer, unassigned) [Example 19.2, 3,3′-(Ethane-1,2-diylbis(5-carbamoyl-1H-benzo[d]imidazole-1,2-diyl))bis(4-(trifluoromethyl)benzo[b]thiophene-2-carboxylic acid)] |  |  |  | 3.66 µM | 2.6 µM | 2.74 °C | 12.26 °C
CCOC(=O)c1sc2ccccc2c1-c1nc2cc(C(N)=O)ccc2n1CCn1c(-c2c(C(=O)OCC)sc3ccccc23)nc2cc(C(N)=O)ccc21 [Example 8, Diethyl 3,3′-(ethane-1,2-diylbis(5-carbamoyl-1H-benzo[d]imidazole-1,2-diyl))bis(benzo[b]thiophene-2-carboxylate)] |  |  |  | > 40 µM | > 40 µM |  | 
CCOC(=O)c1sc2c(F)ccc(OC)c2c1-c1nc2cc(C(N)=O)ccc2n1CCn1c(-c2c(C(=O)OCC)sc3c(F)ccc(OC)c23)nc2cc(C(N)=O)ccc21 [Example 12, Diethyl 3,3′-(ethane-1,2-diylbis(5-carbamoyl-1H-benzo[d]imidazole-1,2-diyl))bis(7-fluoro-4-methoxybenzo[b]thiophene-2-carboxylate)] |  |  |  | 9.18 µM | 5.08 µM |  | 
COc1c(C(N)=O)ccc2c1nc(-c1c(C(=O)O)sc3cccc(Cl)c13)n2CCn1c(-c2c(C(=O)O)sc3cccc(Cl)c23)nc2c(OC)c(C(N)=O)ccc21 (single isomer, unassigned) [Example 22.1, 3,3′-(Ethane-1,2-diylbis(5-carbamoyl-4-methoxy-1H-benzo[d]imidazole-1,2-diyl))bis(4-chlorobenzo[b]thiophene-2-carboxylic acid)] |  | 37.7 °C | 45.5 °C | 0.13 µM | 0.256 µM |  | 
NC(=O)c1ccc2c(c1)nc(-c1c(C(=O)O)sc3c(F)ccc(Br)c13)n2CCn1c(-c2c(C(=O)O)sc3c(F)ccc(Br)c23)nc2cc(C(N)=O)ccc21 (single isomer, unassigned) [Example 20.2, 3,3′-(Ethane-1,2-diylbis(5-carbamoyl-1H-benzo[d]imidazole-1,2-diyl))bis(4-bromo-7-fluorobenzo[b]thiophene-2-carboxylic acid)] |  |  |  | 5.81 µM | 14.7 µM | −4.12 °C | 0.44 °C
NC(=O)c1ccc2c(c1)nc(-c1c(C(=O)O)sc3cccc(Cl)c13)n2CCn1c(-c2c(C(=O)O)sc3cccc(Cl)c23)nc2cc(C(N)=O)ccc21 (single isomer, unassigned) [Example 1.2, 3,3′-(Ethane-1,2-diylbis(5-carbamoyl-1H-benzo[d]imidazole-1,2-diyl))bis(4-chlorobenzo[b]thiophene-2-carboxylic acid)] |  |  |  | 6.33 µM | 14.2 µM | −7.14 °C | 0.13 °C
